Measurements taken from patent publication US10017489B2, “Method for preparing benzopyran compound and application thereof in treating pulmonary fibrosis” (SHANGHAI JIAO TONG UNIVERSITY, priority 2013, dated 2018).
Read-outs that look alike come from different tables or passages of the source.

Tested on: Human lung fibroblasts, WI26 cell
Test: Inhibitory effect on WI26 cells proliferation (CCK-8 assay)
Assay type: cell-based
Settings: for inhibition at 30 µg/mL / inhibition at 15 µg/mL: Homo sapiens, Fibroblast, CCK-8; for inhibition at 30 µg/mL: read-out: inhibition rate, WI26 cells proliferation; for toxicity to cell: based on dynamics of the inhibitory effect in FIG. 2
Procedure: Cells: Human lung fibroblasts, WI26 cell;
Methods: wherein WI26 cells at 70-80% confluent were trysinized by 0.25% trypsin solution and seeded in 96-well plates at an initial density of 1×10^4 cells/mL. A medium was replaced 24 h later by the fresh with 15 μg/ml compound 1 and 1/1000 DMSO (drug treatment group 1 and its control) or 30 μg/ml compound 2 and 1/1000 DMSO (drug treatment group 2 and its control), then the medium was refreshed and cell viability was measured by using a CCK-8 method at day 0, 1, 2, 3, 4, 5, 6, respectively. Proliferation measurement was applied by adding 100 μL complete medium and 10 μL CCK-8 solutions to each well and incubating for 1 h. OD values of each well were measured at a primary wavelength λ=450 nm by using a Microplate Spectrophotometer. Data are shown as means±standard deviation (SD) of three independent experiments, each performed in triplicate.

Row | SMILES | inhibition at 30 µg/mL (30 μg/ml compound 2, day one) | inhibition at 30 µg/mL (30 μg/ml compound 2, day six) | toxicity to cell (normal human lung fibroblasts) | inhibition at 15 µg/mL (15 μg/ml compound 1, day one) | inhibition at 15 µg/mL (15 μg/ml compound 1, day six) | increase of inhibition compared with drug treatment group 2 (compound 2) (compound 1 at 15 μg/ml vs compound 2 at 30 μg/ml) | effective concentration to inhibit normal human lung fibroblasts proliferation and activation (normal human lung fibroblasts)
1 | CC(C)=CCC[C@]1(C)Oc2ccc(C(=O)N[C@H](C(=O)O)[C@@H](C)O)cc2C[C@@H]1O [compound 2, Xiamenmycin, reference compound] | 10% | 28.5% | low toxicity |  |  |  | 
2 | CC(C)=CCC[C@]1(C)Oc2ccc(C(N)=O)cc2C[C@@H]1O [compound 1, xiamenmycin C] |  |  | low toxicity | 13.8% | 38% | ~10% | 15 µg/mL
